Measurements taken from patent US20230302018A1 (priority 2022, published 2023).

Test system: Male Wistar rats exposed to nitrogen mustard (NM)
Conditions: rat, in vivo

SMILES: CC[C@H]1[C@@H](O)[C@@H]2[C@H](CC[C@]3(C)[C@@H]([C@H](C)CCC(=O)O)CC[C@@H]23)[C@@]2(C)CC[C@@H](O)C[C@@H]12 [OCA, 6α-ethyl-chenodeoxycholic acid]
- reduction in total collagen (hydroxyproline in tissue) compared to NM alone: 2 fold
